Measurements reported in article PMC7400623, “Effect of lysine side chain length on histone lysine acetyltransferase catalysis” (Scientific Reports, 2020).
One block for each substance: values may come before it.

How the values were obtained:
[1] = molecular target: Human PCAF catalytic domain (residues 498-658) (human) (UniProt Q92831)
[2] = molecular target: Human GCN5 catalytic domain (residues 497-662) (human) (UniProt Q92830)
PCAF catalytic domain = molecular target: T1, PCAF catalytic domain (Homo sapiens, UniProt Q92831); assay: MALDI-TOF MS kinetics assay, PCAF; type: biochemical
T1 construct: Human PCAF catalytic domain (residues 498–658 in pET16b vector); SNAP-tag; His-tag; made in house; host or cells: E. coli BL21(DE3)
Excerpt: (§1) Kinetic analysis of bi-substrate enzymes, such as KATs, is reckoned to be challenging and dependent on many factors. Firstly, given the nature of these enzymes, the binding of one of the two substrates directly influences the binding of the other (with a direct effect on the Michaelis–Menten parameter Km). […] Therefore, to obtain data that would allow us to directly compare the catalytic properties of the selected KATs towards our selection of histone peptides bearing lysine analogs with longer side chains, two strategies to standardize our kinetic evaluation were taken: i) all the experiments were carried out with the same saturating concentrations of AcCoA and ii) only KATs catalytic domains were employed in the study.
(§2) Histone peptides kinetics evaluation was carried out with a MALDI-TOF MS assay under steady-state conditions[57],[58]. Histone peptides (1,050–0 µM) were incubated with AcCoA (100 µM) and the reactions were started by the addition of the enzyme (MOF 570 nM, PCAF and GCN5 50 nM) in a final volume of 20 µL in kinetic buffer (50 mM HEPES, 0.1 mM EDTA, 0.01% TRITON-X, pH = 7.4). […] AcCoA stock solutions in milli-Q water were calibrated with a NanoDrop 2000 spectrophotometer (Thermo Scientific, Waltham, MA, USA), employing the characteristic molar extinction coefficient ε260nm = 16,400 M^−1 cm^−1. Reactions were incubated at 37 °C, shaken at 750 rpm and quenched with TFA 10% in milli-Q water at different time points, within linear production of acetylated peptides extrapolated from time-course plots. All reactions were aliquoted and mixed 1:2 with a solution of α-cyano-4-hydroxycinnamic acid (CHCCA) in 1:1 MQ and ACN (0.1% TFA) and loaded onto MTP 384 polished steel target to be analyzed by UltrafleXtreme-II tandem mass spectrometer (Bruker). The amount of acetylated peptide was calculated by integration of the product peak area and divided it by the amount of unacetylated peptide, taking in account all the ionic species, at any concentration points using the FlexAnalysis software. Kinetic values were extrapolated by fitting V0 values (µM of produced peptide per minutes) and histone peptide concentrations to the Michaelis–Menten equation using the GraphPad Prism 5 software. Kinetic experiments were carried out in duplicates and final values are reported as value ± SD.

GCN5 catalytic domain = molecular target: T2, GCN5 catalytic domain (Homo sapiens, UniProt Q92830); assay: MALDI-TOF MS kinetics assay, GCN5; type: biochemical
T2 construct: Human GCN5 catalytic domain (residues 497–662 in pET28a-LIC vector); His-tag; host or cells: E. coli BL21(DE3)
Excerpt: as §1, §2

PCAF (KAT2B) = molecular target: T3, PCAF (KAT2B) (Homo sapiens, UniProt Q92831); assay: MALDI-TOF MS enzymatic assay of PCAF-catalyzed acetylation of histone peptides; type: biochemical; conditions: 100 µM peptide, 300 µM AcCoA, pH 8.0, 37 °C, MALDI-TOF MS
T3 construct: Human PCAF catalytic domain (residues 498–658 in pET16b vector); SNAP-tag; His-tag; made in house; host or cells: E. coli BL21(DE3)
Description: (§3) MALDI-TOF MS enzymatic assays were carried out to investigate KAT-catalyzed acetylation of synthetic histone peptides. The enzymatic activity of the recombinantly expressed human KATs was measured at different time points (2 µM KAT enzyme, 100 µM histone peptide, 300 µM AcCoA, buffer: 50 mM Hepes, 0.1 mM EDTA, 1 mM DTT, pH = 8.0, 37 °C, hereafter used as standard conditions) (Fig. 3b,c). […] As further control, H4 and H3 peptides containing stereochemically inverted D-lysine were synthesized.
(§4) The KAT enzymatic activity towards histone peptides was measured at different time points under standard conditions (2 µM KAT enzyme, 100 µM peptide, 300 µM AcCoA) in the reaction buffer (50 mM HEPES, 0.1 mM EDTA, 1 mM DTT, pH = 8.0). The reactions were carried out in a final volume of 50 µL and shaken up in a Thermomixer C at 750 rpm, at 37 °C. The reactions were quenched by the addition of TFA 10% in MilliQ water at different time points. All reactions were aliquoted and mixed 1:2 with a solution of α-Cyano-4-hydroxycinnamic acid (CHCCA) in 1:1 MQ and ACN (0.1% TFA) and loaded onto an MTP 384 polished steel target to be analyzed by a UltrafleXtreme-II tandem mass spectrometer (Bruker, Billerica, MA, USA).

GCN5 (KAT2A) = molecular target: T4, GCN5 (KAT2A) (Homo sapiens, UniProt Q92830); assay: MALDI-TOF MS enzymatic assay of GCN5-catalyzed acetylation of histone peptides; type: biochemical; conditions: 300 µM AcCoA, pH 8.0, 37 °C, MALDI-TOF MS
T4 construct: Human GCN5 catalytic domain (residues 497–662 in pET28a-LIC vector); His-tag; host or cells: E. coli BL21(DE3)
Description: as §3, §4

[3] = molecular target: Human GCN5 catalytic domain (residues 497-662) (human) (UniProt Q92830); remark: listed apart in the source
[4] = molecular target: Human PCAF catalytic domain (residues 498-658) (human) (UniProt Q92831); remark: listed apart in the source

Sequence of Human GCN5 catalytic domain (residues 497-662) (human) (Q92830 497-662): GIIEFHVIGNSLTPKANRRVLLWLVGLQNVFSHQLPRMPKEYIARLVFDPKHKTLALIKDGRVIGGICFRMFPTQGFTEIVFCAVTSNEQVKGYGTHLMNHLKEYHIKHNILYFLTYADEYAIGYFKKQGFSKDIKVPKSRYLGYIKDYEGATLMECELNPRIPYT
T2 sequence (Q92830 497-662): as above
T1 sequence (Q92831 498-658): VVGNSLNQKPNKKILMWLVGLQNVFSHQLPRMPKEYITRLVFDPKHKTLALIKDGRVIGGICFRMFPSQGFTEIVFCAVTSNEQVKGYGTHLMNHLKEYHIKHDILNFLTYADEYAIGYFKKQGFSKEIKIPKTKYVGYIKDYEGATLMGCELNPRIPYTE
Sequence of Human PCAF catalytic domain (residues 498-658) (human) (Q92831 498-658): as above
T4 sequence (Q92830 497-662): as the sequence (Q92830 497-662) above
T3 sequence (Q92831 498-658): as the sequence (Q92831 498-658) above

Substance: TKQTARK Ac STGG hK 14 APR [H3hK14, 15-mer histone H3 peptide (K9ac) with hLys at position 14]
kcat^app (PCAF catalytic domain; PCAF catalytic domain 50 nM (2 µM for unnatural analogs), peptide 1,050–0 µM, AcCoA 100 µM (saturating), 50 mM HEPES, 0.1 mM EDTA, 0.01% TRITON-X, pH 7.4, 37 °C, MALDI-TOF MS, duplicates, value ± SD, SD): 0.0155 ± 0.0033 s⁻¹
Km (PCAF catalytic domain; PCAF catalytic domain 50 nM (2 µM for unnatural analogs), peptide 1,050–0 µM, AcCoA 100 µM, pH 7.4, 37 °C, MALDI-TOF MS, duplicates, value ± SD, SD, read-out: Km^app): 488 ± 98 µM
decrease (drop) of kcat/Km for PCAF compared to the natural lysine peptide (PCAF catalytic domain; PCAF, K14 series vs H3K14, K9 series vs H3K9): 263 fold
kcat^app/Km^app (PCAF catalytic domain; PCAF, same kinetics conditions): 31.7 M⁻¹ s⁻¹
decrease (drop) of kcat/Km for GCN5 compared to the natural lysine peptide (GCN5 catalytic domain; GCN5, K14 series vs H3K14, K9 series vs H3K9): 354 fold
kcat^app/Km^app (GCN5 catalytic domain; GCN5, same kinetics conditions): 16.7 M⁻¹ s⁻¹
kcat^app (GCN5 catalytic domain; GCN5 catalytic domain 50 nM (2 µM for unnatural analogs), peptide 1,050–0 µM, AcCoA 100 µM (saturating), 50 mM HEPES, 0.1 mM EDTA, 0.01% TRITON-X, pH 7.4, 37 °C, MALDI-TOF MS, duplicates, value ± SD, SD): 0.0145 ± 0.0017 s⁻¹
Km (GCN5 catalytic domain; GCN5 catalytic domain 50 nM (2 µM for unnatural analogs), peptide 1,050–0 µM, AcCoA 100 µM, pH 7.4, 37 °C, MALDI-TOF MS, duplicates, value ± SD, SD, read-out: Km^app): 878 ± 157 µM
acetylation (conversion to acetylated peptide) by PCAF (PCAF (KAT2B); after 3 h, 2 µM PCAF, 50 mM Hepes, 0.1 mM EDTA, 1 mM DTT): 83%
acetylation (conversion to acetylated peptide) by GCN5 (GCN5 (KAT2A); after 3 h, 2 µM GCN5, 100 µM peptide, 50 mM Hepes, 0.1 mM EDTA, 1 mM DTT): 62%

Substance: ARTKQTAR h3K9STGGK Ac A [H3h3K9, 15-mer histone H3 peptide (K14ac) with h3K at position 9]
substrate for PCAF-catalyzed acetylation (in words) (PCAF (KAT2B); standard conditions: 2 µM PCAF, 3 h): No acetylation was observed within limits of detection
substrate for GCN5-catalyzed acetylation (in words) (GCN5 (KAT2A); standard conditions: 2 µM GCN5, 100 µM peptide, 3 h): No acetylation was observed within limits of detection

Substance: H3K*9 histone peptide containing h4K at position 9 (H3 residues 1-15, K14 acetylated)
IC50 of inhibition of GCN5-catalyzed acetylation of the H3K9 peptide (single point, 100 µM of each peptide, 1 h, 37 °C, MALDI-TOF MS; residual activity greater than 50%) [3]: > 100 µM
IC50 of inhibition of PCAF-catalyzed acetylation of the H3K9 peptide (single point, 100 µM of each peptide, 1 h, 37 °C, MALDI-TOF MS; residual activity greater than 50%) [4]: > 100 µM

Substance: H3K*9 histone peptide containing Orn at position 9 (H3 residues 1-15, K14 acetylated)
IC50 of inhibition of GCN5-catalyzed acetylation of the H3K9 peptide (single point, 100 µM of each peptide, 1 h, 37 °C, MALDI-TOF MS; residual activity greater than 50%) [3]: > 100 µM
IC50 of inhibition of PCAF-catalyzed acetylation of the H3K9 peptide (single point, 100 µM of each peptide, 1 h, 37 °C, MALDI-TOF MS; residual activity greater than 50%) [4]: > 100 µM

Substance: H3K*14 histone peptide containing Orn at position 14 (H3 residues 3-17, K9 acetylated)
IC50 of inhibition of GCN5-catalyzed acetylation of the H3K14 peptide (single point, 100 µM of each peptide, 1 h, 37 °C, MALDI-TOF MS; residual activity greater than 50%) [3]: > 100 µM
IC50 of inhibition of PCAF-catalyzed acetylation of the H3K14 peptide (single point, 100 µM of each peptide, 1 h, 37 °C, MALDI-TOF MS; residual activity greater than 50%) [4]: > 100 µM

Second part, the substance after the results:

Km^app of PCAF-catalyzed acetylation (MALDI-TOF MS kinetics, steady state, saturating AcCoA, 37 °C, pH 7.4) [1]: 179 μM
Substance: H3h2K9 histone peptide (H3 residues 1-15, K14 acetylated, h2K at position 9)

Km^app of GCN5-catalyzed acetylation (MALDI-TOF MS kinetics, steady state, saturating AcCoA, 37 °C, pH 7.4) [2]: 995 μM
Km^app of PCAF-catalyzed acetylation (MALDI-TOF MS kinetics, steady state, saturating AcCoA, 37 °C, pH 7.4) [1]: 727 μM
Substance: H3K14 histone peptide (H3 residues 3-17, K9 acetylated)
